From patent publication US9694005B2, “Nonsteroidal and steroidal compounds with potent androgen receptor down-regulation and anti prostate cancer activity” (University of Maryland, Baltimore, priority 2013, dated 2017)
Read-outs that look alike come from different tables or passages of the source. Blank lines part the entries; values can stand above or below the compound they belong to.

Tests used:
[1] = test system: LNCaP cells; experiment: Cell growth inhibition (MTT colorimetric assay), LNCaP; format: cell-based, human; details: Homo sapiens
Protocol: (§1) Compounds were evaluated on their ability to inhibit LNCaP cell (androgen sensitive AR-mutant), C4-2B and CWR22Rv1 (CRPC cell lines) viability at 1 and 10 μM concentrations by the MTT assy.
(§2) The cells were seeded in 96-well plates (Corning Costar) at a density of 5×10^3 cells per well. Cells were allowed to adhere to the plate for 24 hours and then treated with various concentrations of compounds dissolved in 95% EtOH. Cells were treated for 7 days with renewal of test compound and media on day 4. On the 7th day, medium was renewed and MTT (3-(4,5-dimethylthiazol-2-yl)-2,5-diphenyl-2H-tetrazolium bromide) (Sigma, St Louis, Mo., USA) solution (0.5 mg MTT per ml of media) was added to the medium such that the ratio of MTT: medium was 1:10. The cells were incubated with MTT for 2 hours. The medium was then aspirated and DMSO was added to solubilize the violet MTT-formazan product. The absorbance at 562 nm was measured by spectrophotometry (Biotek Inc.).

[2] = test system: full length AR and the splice variants ARs; experiment: AR down-regulation in CWR22Rv1 (FIGS. 9D, 9E, 9F); format: cell-based, human; details: 9E and 9F
Protocol: (§3) In the experiments show in FIG. 9, LNCaP and CWR22Rv1 cells were treated VN/124-1 and analogs at varying time points and effects on significant cancer cells promoting genes investigated at the protein level.

[3] = test system: LNCaP cell, C4-2B and CWR22Rv1; experiment: Cell growth inhibition (MTT), anticancer activity, cell line not given; format: cell-based, human; details: cell line not stated
Protocol: as §1

[4] = biological target: T1, AR protein (Homo sapiens, UniProt P10275, T878A); experiment: Western blotting, AR protein levels in LNCaP cells; format: cell-based; details: 15 μM of each compound for 24 h (FIG. 8)
T1 construct: Effect of compounds on suppression of AR protein levels in LNCaP cells; endogenous in cells; host or cells: LNCaP
T1 sequence (P10275 1-920 T878A): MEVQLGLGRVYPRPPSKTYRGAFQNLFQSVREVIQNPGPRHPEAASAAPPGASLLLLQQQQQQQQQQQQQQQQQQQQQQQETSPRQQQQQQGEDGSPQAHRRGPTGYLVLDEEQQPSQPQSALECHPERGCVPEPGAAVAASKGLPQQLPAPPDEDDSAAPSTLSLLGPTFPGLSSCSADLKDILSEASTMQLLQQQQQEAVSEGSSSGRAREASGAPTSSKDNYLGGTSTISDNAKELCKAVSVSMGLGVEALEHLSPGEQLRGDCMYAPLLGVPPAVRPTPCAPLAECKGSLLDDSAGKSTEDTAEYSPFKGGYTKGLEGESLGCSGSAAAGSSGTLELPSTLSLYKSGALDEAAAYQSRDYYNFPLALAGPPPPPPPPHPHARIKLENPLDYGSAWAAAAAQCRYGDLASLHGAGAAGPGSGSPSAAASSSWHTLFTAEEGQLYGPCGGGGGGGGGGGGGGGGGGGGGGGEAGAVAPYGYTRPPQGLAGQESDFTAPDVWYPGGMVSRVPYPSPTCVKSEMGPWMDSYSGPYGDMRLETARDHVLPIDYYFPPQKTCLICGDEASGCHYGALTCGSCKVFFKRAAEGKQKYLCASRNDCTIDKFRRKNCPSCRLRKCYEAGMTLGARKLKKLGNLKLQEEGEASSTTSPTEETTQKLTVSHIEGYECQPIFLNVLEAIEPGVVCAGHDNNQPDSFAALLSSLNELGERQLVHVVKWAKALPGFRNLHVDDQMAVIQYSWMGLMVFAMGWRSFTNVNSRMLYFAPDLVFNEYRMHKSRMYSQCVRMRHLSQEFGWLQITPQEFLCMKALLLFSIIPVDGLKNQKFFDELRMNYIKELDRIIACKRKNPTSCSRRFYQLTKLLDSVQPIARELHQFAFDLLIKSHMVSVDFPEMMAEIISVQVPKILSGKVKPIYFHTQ
Protocol: The ability of various compounds to down-regulate AR protein expressions was determined by western blotting.

[5] = test system: CWR22Rv1; experiment: Cell growth inhibition (MTT colorimetric assay), CWR22Rv1; format: cell-based; details: Homo sapiens
Protocol: as §1, §2

[6] = test system: PC3 cells; experiment: Cell migration of PC3 cells; format: cell-based, human; details: 5 μM, after 12 hours; FIG. 10
[7] = test system: PARP cleavage, CDC25c, Mnk2, Cyclin D1, Cox-2 and N-Cadherin in LNCaP cells; experiment: Effects of compounds on oncogenes at the protein level, LNCaP cells; format: cell-based, human; details: FIGS. 9A and 9C
Protocol: as §3

[8] = test system: N-Cadherin, AR3, Mnk1/2, MMP-2, Ezh2, Mc1-1, eIF4E phosphorylation in CWR22Rv1 cells; experiment: Effects of compounds on oncogenes at the protein level, CWR22Rv1 cells; format: cell-based, human; details: FIGS. 9B and 9G
[9] = test system: full length AR; experiment: AR down-regulation (FIG. 9H); format: cell-based, human
[10] = LNCaP, 168 h, Steroidal VNPP compounds table, treated for 7 days, read-out: GI50 Values High Passage LNCaP
[11] = Table 10, LNCaP low passage, concentration required to inhibit cell growth by 50%, read-out: GI50 Values LNCaP (Low Passage)
[12] = LNCaP, 168 h, Non-steroidal VNPP compounds table, treated for 7 days, read-out: GI50 Values High Passage LNCaP
[13] = CWR22Rv1, 168 h, Non-steroidal VNPP compounds table, treated for 7 days
[14] = LNCaP, 168 h, Non-steroidal VNPP compounds table, treated for 7 days, read-out: GI50 Values Low Passage LNCaP
[15] = CWR22Rv1, 168 h, Steroidal VNPP compounds table, treated for 7 days
[16] = LNCaP, 168 h, Steroidal VNPP compounds table, treated for 7 days, read-out: GI50 Values Low Passage LNCaP
[17] = Table 10, LNCaP high passage, read-out: GI50 Values LNCaP (High Passage)

GI50 [1, 10]: 4.85 µM | GI50 [1, 11]: 4.85 µM
Compound: CNC(=O)c1ccc(N2C(=S)N(c3ccc(C#N)c(C(F)(F)F)c3)C(=O)C2(C)C)cc1F [MDV3100, reference compound]

Compound: C[C@]12CCC3c4ccc(O)cc4CCC3C1CC=C2n1cnc2ccccc21 (stereo partly drawn) [VNPP338]
AR down-regulation against full length AR and the splice variants ARs [2]: showed activity (AR down-regulation) | Anticancer activity (SAR statement) [3]: equal potent anticancer activity to compound VN/124-1 | AR down-regulating action (AR protein levels, western blot) [4]: potent AR down-regulating agents

Compound: C[C@]12CCC3c4ccc(C(=O)O)cc4CCC3C1CC=C2n1cnc2ccccc21 (stereo partly drawn) [VNPP341]
AR down-regulation against full length AR and the splice variants ARs [2]: showed activity (AR down-regulation) | Anticancer activity (SAR statement) [3]: moderately acting | AR down-regulating action (AR protein levels, western blot) [4]: AR up-regulators

GI50 [1, 12]: 4.41 µM
Compound: COc1cccc(-c2ccc(Cn3cnc4ccccc43)cc2)c1 [VNPP347B, 3-[4-(benzimidazolylmethyl)phenyl]-1-methoxybenzene]
GI50 [5, 13]: 14 µM

GI50 [1, 12]: 3.5 µM | GI50 [1, 14]: 3.71 µM
Compound: N#Cc1cccc(-c2ccc(Cn3cnc4ccccc43)cc2)c1 [VNPP358, 3-[4-(benzimidazolylmethyl)phenyl]benzenecarbonitrile]
GI50 [5, 13]: 10.5 µM

melting point: 231 to 233 °C
Compound: c1cc(-c2ccc(Cn3cnc4ccccc43)cc2)cc(-c2nn[nH]n2)c1 [VNPP361, 5-{3-[4-(benzimidazolylmethyl)phenyl]phenyl}-1H-1,2,3,4-tetraazole]

melting point: 223 to 225 °C
Compound: c1cc(-c2ccc(CCn3cnc4ccccc43)cc2)cc(-c2nn[nH]n2)c1 [VNPP364, 5-{3-[4-(benzimidazolylethyl)phenyl]phenyl}-1H-1,2,3,4-tetraazole]

GI50 [1, 12]: 6.09 µM | GI50 [1, 14]: 5.77 µM
Compound: Oc1ccc2cc(-c3cccc(-n4cnc5ccccc54)c3)ccc2c1 [VNPP372/2, 6-(3-benzimidazolylphenyl)naphthalen-2-ol]
GI50 [5, 13]: 8.91 µM

Compound: C[C@]12CC[C@H](OC(=S)n3ccnc3)CC1=CCC1C2CC[C@]2(C)C(n3cnc4ccccc43)=CCC12 (stereo partly drawn) [VNPP397, 3β-(1H-imidazole-1-thiocarboxylate)-17-(1H-benzimidazol-1-yl)androsta-5,16-diene]
GI50 [1, 10]: 9.57 µM | GI50 [5, 15]: 7.52 µM

Compound: CO[C@H]1CC[C@@]2(C)C(=CC[C@@H]3[C@@H]2CC[C@]2(C)C(n4cnc5ccccc54)=CC[C@@H]32)C1 [VNPP412, 3β-(methoxy)-17-(1H-benzimidazol-1-yl) androsta-5,16-diene]
GI50 [1, 10]: 8.71 µM | GI50 [5, 15]: 7.5 µM

Compound: C[C@]12CC[C@H](OCc3ccncc3)CC1=CC[C@@H]1[C@@H]2CC[C@]2(C)C(n3cnc4ccccc43)=CC[C@@H]12 [VNPP414, 3β-(pyridine-4-ylmethoxy)-17-(1H-benzimidazol-1-yl) androsta-5,16-diene]
Migration of PC3 cells [6]: profoundly inhibit migration | Expression of CDC25c, Mnk2, Cyclin D1, Cox-2 and N-Cadherin [7]: reduced | PARP cleavage (signature of apoptosis) [7]: significant increase | Phosphorylation of eIF4E [8]: downregulated | Protein expression of N-Cadherin, AR3, Mnk1/2, MMP-2, Ezh2, Mc1-1 [8]: decreased | GI50 [1, 10]: 2.45 µM | GI50 [1, 16]: 0.87 µM | GI50 [1, 17]: 2.45 µM | GI50 [1, 11]: 0.87 µM | GI50 [5, 15]: 3.24 µM | GI50 ([5]; CWR22Rv1, Table 10): 3.24 µM

GI50 [1, 12]: 3.14 µM | GI50 [1, 14]: 5.23 µM
Compound: COc1ccc(S(=O)(=O)Nc2cccc(-n3cnc4ccccc43)c2)cc1 [VNPP431, (3-benzimidazolylphenyl)[(4-methoxyphenyl)sulfonyl]amine]
GI50 [5, 13]: 4.78 µM

Compound: C[C@]12CC[C@H](n3cnc4ccccc43)CC1=CC[C@@H]1[C@@H]2CC[C@]2(C)C(n3cnc4ccccc43)=CC[C@@H]12 [VNPP433 (A2), 3β-(1H-benzimidazol-1-yl)-17-(1H-benzimidazol-1-yl)androsta-5,16-diene]
AR down-regulation against full length AR [9]: activity (AR down-regulation)

Compound: C[C@]12CC[C@@H](n3ccnc3)CC1=CC[C@@H]1[C@@H]2CC[C@]2(C)C(n3cnc4ccccc43)=CC[C@@H]12 [VNPP433-3α, 3α-(1H-imidazol-1-yl)-17-(1H-benzimidazol-1-yl) androsta-5,16-diene]
AR down-regulation against full length AR [9]: activity (AR down-regulation) | GI50 [1, 10]: 8.91 µM | GI50 [1, 16]: 4.04 µM | GI50 [5, 15]: 9.88 µM

Compound: C[C@]12CC[C@H](n3ccnc3)CC1=CC[C@@H]1[C@@H]2CC[C@]2(C)C(n3cnc4ccccc43)=CC[C@@H]12 [VNPP433-3β, 3β-(1H-imidazol-1-yl)-17-(1H-benzimidazol-1-yl) androsta-5,16-diene]
AR down-regulation against full length AR [9]: activity (AR down-regulation) | GI50 [1, 10]: 1.64 µM | GI50 [1, 16]: 0.81 µM | GI50 [1, 17]: 1.64 µM | GI50 [1, 11]: 0.81 µM | GI50 [5, 15]: 2.54 µM | GI50 ([5]; CWR22Rv1, Table 10): 2.54 µM

Compound: C[C@]12CCC3CC31[C@H](n1ccnc1)CC1C3CC=C(n4cnc5ccccc54)C3CCC12 (stereo partly drawn) [VNPP433-6β, 6β-imidazol-1yl-3,5-cycloandrostan-17-benzimidazole-1-yl-16-ene]
AR down-regulation against full length AR [9]: activity (AR down-regulation) | GI50 [1, 10]: 6.61 µM | GI50 [5, 15]: 12.3 µM
